Laboratory results reported in the kinase profiling compilation of Christmann-Franck et al. (2016).

Assays:
Assay in all cases: radiometric filter-binding kinase assay, Kinase HotSpot
Details in all cases: compound 0.5 µM; ATP 10 µM
RPS6KA2 KD1 KD2 (human) = RPS6KA2 KD1 KD2 (human) (UniProt Q15349)
AURKB (human) = AURKB (human) (UniProt Q96GD4)
RIPK2 (human) = RIPK2 (human) (UniProt O43353)
DDR2 (human) = DDR2 (human) (UniProt Q16832)
CSNK1G3 (human) = CSNK1G3 (human) (UniProt Q9Y6M4)
GRK5 (human) = GRK5 (human) (UniProt P34947)
MAP3K3 (human) = MAP3K3 (human) (UniProt Q99759)
DYRK2 (human) = DYRK2 (human) (UniProt Q92630)
NEK6 (human) = NEK6 (human) (UniProt Q9HC98)
PRKD1 (human) = PRKD1 (human) (UniProt Q15139)
ROCK2 (human) = ROCK2 (human) (UniProt O75116)
ROCK2 (human), sequence (O75116 whole entry, looked up): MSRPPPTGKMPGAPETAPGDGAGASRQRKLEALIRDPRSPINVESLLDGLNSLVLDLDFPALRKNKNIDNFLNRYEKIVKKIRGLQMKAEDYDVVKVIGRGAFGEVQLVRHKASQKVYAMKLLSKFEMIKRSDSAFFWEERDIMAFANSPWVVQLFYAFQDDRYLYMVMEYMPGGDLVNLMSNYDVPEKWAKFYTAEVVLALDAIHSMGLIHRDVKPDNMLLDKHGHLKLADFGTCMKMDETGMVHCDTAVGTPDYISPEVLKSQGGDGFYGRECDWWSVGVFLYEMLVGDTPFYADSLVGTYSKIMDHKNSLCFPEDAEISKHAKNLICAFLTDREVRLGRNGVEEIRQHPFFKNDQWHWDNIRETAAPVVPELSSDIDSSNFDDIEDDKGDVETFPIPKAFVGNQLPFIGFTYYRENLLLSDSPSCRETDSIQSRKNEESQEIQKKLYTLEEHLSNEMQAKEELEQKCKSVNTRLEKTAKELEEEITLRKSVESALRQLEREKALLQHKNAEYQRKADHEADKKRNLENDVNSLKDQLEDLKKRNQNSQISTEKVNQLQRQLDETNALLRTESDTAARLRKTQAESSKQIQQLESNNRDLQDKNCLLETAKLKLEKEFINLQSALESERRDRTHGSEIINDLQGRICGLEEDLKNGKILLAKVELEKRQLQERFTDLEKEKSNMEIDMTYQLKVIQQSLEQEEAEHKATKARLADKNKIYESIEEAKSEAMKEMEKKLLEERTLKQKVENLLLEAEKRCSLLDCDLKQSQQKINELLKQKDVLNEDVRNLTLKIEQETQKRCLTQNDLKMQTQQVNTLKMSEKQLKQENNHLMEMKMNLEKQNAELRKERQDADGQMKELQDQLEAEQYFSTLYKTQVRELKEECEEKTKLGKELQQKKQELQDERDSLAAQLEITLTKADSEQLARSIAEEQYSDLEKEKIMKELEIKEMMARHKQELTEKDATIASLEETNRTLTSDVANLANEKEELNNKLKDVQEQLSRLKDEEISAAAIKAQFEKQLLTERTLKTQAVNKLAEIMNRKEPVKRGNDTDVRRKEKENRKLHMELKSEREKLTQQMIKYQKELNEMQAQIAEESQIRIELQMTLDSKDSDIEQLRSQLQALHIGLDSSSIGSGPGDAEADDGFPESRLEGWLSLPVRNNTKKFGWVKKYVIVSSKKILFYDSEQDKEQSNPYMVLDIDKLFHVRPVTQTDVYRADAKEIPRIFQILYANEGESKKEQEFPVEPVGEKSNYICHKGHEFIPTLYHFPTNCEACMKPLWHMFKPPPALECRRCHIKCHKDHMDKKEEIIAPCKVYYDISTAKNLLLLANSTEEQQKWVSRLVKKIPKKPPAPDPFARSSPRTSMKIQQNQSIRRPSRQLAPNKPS

HIPK4 (human) = HIPK4 (human) (UniProt Q8NE63)
BLK (human) = BLK (human) (UniProt P51451)
BLK (human), sequence (P51451 whole entry, looked up): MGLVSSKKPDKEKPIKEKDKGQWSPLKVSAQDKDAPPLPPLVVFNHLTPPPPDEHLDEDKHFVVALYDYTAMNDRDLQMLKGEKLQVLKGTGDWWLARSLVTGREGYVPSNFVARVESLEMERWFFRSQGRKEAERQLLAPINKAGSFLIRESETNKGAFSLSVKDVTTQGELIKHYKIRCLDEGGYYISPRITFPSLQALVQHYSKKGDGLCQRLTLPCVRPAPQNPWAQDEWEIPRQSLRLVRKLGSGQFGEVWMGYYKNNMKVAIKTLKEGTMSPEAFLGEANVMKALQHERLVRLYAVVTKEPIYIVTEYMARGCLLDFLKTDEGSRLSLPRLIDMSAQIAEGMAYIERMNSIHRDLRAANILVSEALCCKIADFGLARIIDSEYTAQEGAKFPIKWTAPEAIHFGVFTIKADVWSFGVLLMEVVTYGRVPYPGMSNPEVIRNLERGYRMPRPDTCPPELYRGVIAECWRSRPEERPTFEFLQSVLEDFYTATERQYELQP

CSNK2A1 (human) = CSNK2A1 (human) (UniProt P68400)
JAK3 JH1 JH2 (human) = JAK3 JH1 JH2 (human) (UniProt P52333)
SIK2 (human) = SIK2 (human) (UniProt Q9H0K1)
CDK7 CCNH MNAT1 (human) = CDK7 CCNH MNAT1 (human) (UniProt P50613+P51948+P51946)
TEK (human) = TEK (human) (UniProt Q02763)
CSNK1G2 (human) = CSNK1G2 (human) (UniProt P78368)
ULK2 (human) = ULK2 (human) (UniProt Q8IYT8)
STK16 (human) = STK16 (human) (UniProt O75716)
[1] = target: TYK2 JH1 catalytic (human) (UniProt P29597)
FER (human) = FER (human) (UniProt P16591)
BRSK2 (human) = BRSK2 (human) (UniProt Q8IWQ3)
PLK3 (human) = PLK3 (human) (UniProt Q9H4B4)
SGK2 (human) = SGK2 (human) (UniProt Q9HBY8)
MAP3K8 (human) = MAP3K8 (human) (UniProt P41279)
DYRK4 (human) = DYRK4 (human) (UniProt Q9NR20)
MAP4K2 (human) = MAP4K2 (human) (UniProt Q12851)
CDK1 CCNA2 (human) = CDK1 CCNA2 (human) (UniProt P06493+P20248)
INSR (human) = INSR (human) (UniProt P06213)
SRPK3 (human) = SRPK3 (human) (UniProt Q9UPE1)
LIMK1 (human) = LIMK1 (human) (UniProt P53667)
MST4 (human) = MST4 (human) (UniProt Q9P289)
GRK4 (human) = GRK4 (human) (UniProt P32298)
GRK4 (human), sequence (P32298 whole entry, looked up): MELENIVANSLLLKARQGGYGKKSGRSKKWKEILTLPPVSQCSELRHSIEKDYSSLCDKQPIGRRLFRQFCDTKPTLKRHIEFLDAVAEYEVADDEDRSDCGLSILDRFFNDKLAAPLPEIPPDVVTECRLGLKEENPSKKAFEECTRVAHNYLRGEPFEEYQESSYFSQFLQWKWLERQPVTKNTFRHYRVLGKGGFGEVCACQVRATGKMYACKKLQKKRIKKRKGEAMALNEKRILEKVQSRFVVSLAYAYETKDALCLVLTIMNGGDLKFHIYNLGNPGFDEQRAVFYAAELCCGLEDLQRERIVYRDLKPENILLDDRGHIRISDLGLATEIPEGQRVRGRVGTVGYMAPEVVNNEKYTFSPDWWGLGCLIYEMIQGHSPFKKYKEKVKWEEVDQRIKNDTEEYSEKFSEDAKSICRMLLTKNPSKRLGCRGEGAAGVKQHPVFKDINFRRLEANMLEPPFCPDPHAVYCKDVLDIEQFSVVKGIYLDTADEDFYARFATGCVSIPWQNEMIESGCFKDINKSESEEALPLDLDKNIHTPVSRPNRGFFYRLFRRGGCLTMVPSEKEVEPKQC

MAPK8 (human) = MAPK8 (human) (UniProt P45983)
CDK2 CCNE1 (human) = CDK2 CCNE1 (human) (UniProt P24941+P24864)
CDK2 CCNE1 (human), sequence (P24864 whole entry, looked up, other chains not shown): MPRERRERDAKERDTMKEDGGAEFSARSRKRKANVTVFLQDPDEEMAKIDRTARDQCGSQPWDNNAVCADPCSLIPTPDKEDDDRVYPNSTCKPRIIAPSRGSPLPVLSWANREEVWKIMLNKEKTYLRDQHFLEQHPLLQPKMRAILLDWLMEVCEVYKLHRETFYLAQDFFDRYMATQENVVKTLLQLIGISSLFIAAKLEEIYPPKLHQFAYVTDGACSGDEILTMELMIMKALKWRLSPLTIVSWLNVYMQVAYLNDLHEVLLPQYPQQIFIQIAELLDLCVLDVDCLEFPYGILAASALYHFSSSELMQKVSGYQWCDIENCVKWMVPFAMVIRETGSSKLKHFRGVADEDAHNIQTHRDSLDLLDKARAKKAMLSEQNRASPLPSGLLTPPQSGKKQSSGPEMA

LRRK2 (human) = LRRK2 (human) (UniProt Q5S007)
NEK4 (human) = NEK4 (human) (UniProt P51957)
FGR (human) = FGR (human) (UniProt P09769)
PIM3 (human) = PIM3 (human) (UniProt Q86V86)
AXL (human) = AXL (human) (UniProt P30530)

RIPK2 (human), sequence (O43353 whole entry, looked up): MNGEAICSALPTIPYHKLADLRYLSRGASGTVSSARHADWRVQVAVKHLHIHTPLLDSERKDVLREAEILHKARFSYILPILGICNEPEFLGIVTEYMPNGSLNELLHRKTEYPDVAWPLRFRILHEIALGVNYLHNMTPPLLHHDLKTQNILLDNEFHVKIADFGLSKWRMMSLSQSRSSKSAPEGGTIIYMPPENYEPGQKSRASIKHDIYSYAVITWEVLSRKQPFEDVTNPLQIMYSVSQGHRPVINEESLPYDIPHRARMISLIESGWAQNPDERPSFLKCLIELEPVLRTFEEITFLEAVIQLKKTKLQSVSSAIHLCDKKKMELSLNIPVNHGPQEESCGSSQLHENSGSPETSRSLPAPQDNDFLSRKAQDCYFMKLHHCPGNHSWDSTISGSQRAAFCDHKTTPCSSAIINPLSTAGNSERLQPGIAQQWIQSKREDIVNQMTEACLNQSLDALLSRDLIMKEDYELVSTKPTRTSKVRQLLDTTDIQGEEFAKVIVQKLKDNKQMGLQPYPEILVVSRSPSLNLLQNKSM
RPS6KA2 KD1 KD2 (human), sequence (Q15349 whole entry, looked up): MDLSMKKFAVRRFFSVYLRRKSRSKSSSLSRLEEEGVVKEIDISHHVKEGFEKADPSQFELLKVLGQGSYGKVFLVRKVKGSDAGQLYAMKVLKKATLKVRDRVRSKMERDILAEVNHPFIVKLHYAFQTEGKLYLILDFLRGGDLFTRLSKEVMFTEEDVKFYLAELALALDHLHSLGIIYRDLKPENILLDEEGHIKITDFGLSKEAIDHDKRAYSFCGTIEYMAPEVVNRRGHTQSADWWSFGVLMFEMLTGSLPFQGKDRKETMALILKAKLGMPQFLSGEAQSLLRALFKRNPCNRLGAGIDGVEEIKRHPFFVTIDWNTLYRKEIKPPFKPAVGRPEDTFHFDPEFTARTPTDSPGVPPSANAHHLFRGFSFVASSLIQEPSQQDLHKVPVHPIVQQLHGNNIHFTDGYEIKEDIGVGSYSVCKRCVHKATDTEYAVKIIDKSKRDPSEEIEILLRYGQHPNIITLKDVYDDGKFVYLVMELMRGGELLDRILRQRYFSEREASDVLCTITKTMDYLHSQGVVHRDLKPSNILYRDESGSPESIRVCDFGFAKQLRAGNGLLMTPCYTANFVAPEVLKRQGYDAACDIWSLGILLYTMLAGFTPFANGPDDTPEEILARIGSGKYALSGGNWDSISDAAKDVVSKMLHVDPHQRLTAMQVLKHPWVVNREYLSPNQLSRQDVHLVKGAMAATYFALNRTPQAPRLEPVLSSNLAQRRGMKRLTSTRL
DDR2 (human), sequence (Q16832 whole entry, looked up): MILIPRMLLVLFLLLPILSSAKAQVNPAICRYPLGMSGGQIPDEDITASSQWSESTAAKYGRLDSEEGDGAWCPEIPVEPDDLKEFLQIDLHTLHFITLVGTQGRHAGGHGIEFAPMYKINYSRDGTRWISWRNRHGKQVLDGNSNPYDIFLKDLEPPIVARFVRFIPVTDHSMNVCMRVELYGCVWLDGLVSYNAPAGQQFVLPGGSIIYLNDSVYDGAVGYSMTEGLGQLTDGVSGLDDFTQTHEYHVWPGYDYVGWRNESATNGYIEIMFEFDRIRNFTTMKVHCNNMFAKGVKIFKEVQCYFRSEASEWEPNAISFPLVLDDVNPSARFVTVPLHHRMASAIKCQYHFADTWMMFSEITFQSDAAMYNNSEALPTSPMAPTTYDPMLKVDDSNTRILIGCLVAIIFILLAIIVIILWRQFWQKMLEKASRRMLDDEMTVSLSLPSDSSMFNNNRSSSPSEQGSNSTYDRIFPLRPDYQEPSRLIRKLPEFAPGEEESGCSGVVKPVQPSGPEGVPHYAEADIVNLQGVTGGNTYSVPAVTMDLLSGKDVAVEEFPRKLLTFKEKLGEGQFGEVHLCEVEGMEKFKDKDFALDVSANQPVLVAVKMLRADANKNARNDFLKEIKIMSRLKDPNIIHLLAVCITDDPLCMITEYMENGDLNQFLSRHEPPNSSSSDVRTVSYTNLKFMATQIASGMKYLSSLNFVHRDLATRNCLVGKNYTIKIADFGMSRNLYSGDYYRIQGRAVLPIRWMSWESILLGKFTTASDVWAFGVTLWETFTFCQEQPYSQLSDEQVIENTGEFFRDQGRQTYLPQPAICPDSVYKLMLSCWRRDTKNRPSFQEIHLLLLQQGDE

## COc1cc2nccc(Oc3ccc(NC(=S)NC(=O)c4ccccc4C)cc3)c2cc1OC
RPS6KA2 KD1 KD2 (human)
  residual activity: 91.1%
AURKB (human)
  residual activity: 4.31%
RIPK2 (human)
  residual activity: 89.2%
DDR2 (human)
  residual activity: 54.1%
CSNK1G3 (human)
  residual activity: 93.3%
GRK5 (human)
  residual activity: 98.8%
MAP3K3 (human)
  residual activity: 105%
DYRK2 (human)
  residual activity: 87.5%
NEK6 (human)
  residual activity: 92.4%
PRKD1 (human)
  residual activity: 137%
ROCK2 (human)
  residual activity: 92.5%
HIPK4 (human)
  residual activity: 86%
BLK (human)
  residual activity: 8.59%
CSNK2A1 (human)
  residual activity: 98.9%
JAK3 JH1 JH2 (human)
  residual activity: 96.6%
SIK2 (human)
  residual activity: 97.8%
CDK7 CCNH MNAT1 (human)
  residual activity: 97.7%
TEK (human)
  residual activity: 90.1%
CSNK1G2 (human)
  residual activity: 106%
ULK2 (human)
  residual activity: 88.8%
STK16 (human)
  residual activity: 101%
[1]
  residual activity: 88.5%
FER (human)
  residual activity: 58.2%
BRSK2 (human)
  residual activity: 93%
PLK3 (human)
  residual activity: 92.1%
SGK2 (human)
  residual activity: 97.3%
MAP3K8 (human)
  residual activity: 94.1%
DYRK4 (human)
  residual activity: 92.7%
MAP4K2 (human)
  residual activity: 92.9%
CDK1 CCNA2 (human)
  residual activity: 91.6%
INSR (human)
  residual activity: 100%
SRPK3 (human)
  residual activity: 95.9%
LIMK1 (human)
  residual activity: 82.7%
MST4 (human)
  residual activity: 101%
GRK4 (human)
  residual activity: 95.9%
MAPK8 (human)
  residual activity: 81.3%
CDK2 CCNE1 (human)
  residual activity: 96.7%
LRRK2 (human)
  residual activity: 94.4%
NEK4 (human)
  residual activity: 97.6%
FGR (human)
  residual activity: 21.2%
PIM3 (human)
  residual activity: 98.2%
AXL (human)
  residual activity: 80.4%

## O=C(Nc1ccc(Cl)cc1)c1ccccc1NCc1ccncc1
RPS6KA2 KD1 KD2 (human)
  residual activity: 94.1%
AURKB (human)
  residual activity: 77.7%
RIPK2 (human)
  residual activity: 82.9%
DDR2 (human)
  residual activity: 88.9%
CSNK1G3 (human)
  residual activity: 105%
GRK5 (human)
  residual activity: 97.3%
MAP3K3 (human)
  residual activity: 96.2%
DYRK2 (human)
  residual activity: 96%
NEK6 (human)
  residual activity: 97.1%
PRKD1 (human)
  residual activity: 93.2%
ROCK2 (human)
  residual activity: 93.8%
HIPK4 (human)
  residual activity: 103%
BLK (human)
  residual activity: 102%
CSNK2A1 (human)
  residual activity: 91.1%
JAK3 JH1 JH2 (human)
  residual activity: 87.8%
SIK2 (human)
  residual activity: 94.8%
CDK7 CCNH MNAT1 (human)
  residual activity: 95.1%
TEK (human)
  residual activity: 92.4%
CSNK1G2 (human)
  residual activity: 88.3%
ULK2 (human)
  residual activity: 104%
STK16 (human)
  residual activity: 94.1%
[1]
  residual activity: 92.1%
FER (human)
  residual activity: 80.4%
BRSK2 (human)
  residual activity: 102%
PLK3 (human)
  residual activity: 98.5%
SGK2 (human)
  residual activity: 103%
MAP3K8 (human)
  residual activity: 105%
DYRK4 (human)
  residual activity: 104%
MAP4K2 (human)
  residual activity: 97.3%
CDK1 CCNA2 (human)
  residual activity: 91.8%
INSR (human)
  residual activity: 88%
SRPK3 (human)
  residual activity: 100%
LIMK1 (human)
  residual activity: 83.4%
MST4 (human)
  residual activity: 90.9%
GRK4 (human)
  residual activity: 96.8%
MAPK8 (human)
  residual activity: 109%
CDK2 CCNE1 (human)
  residual activity: 94.3%
LRRK2 (human)
  residual activity: 98.7%
NEK4 (human)
  residual activity: 85.8%
FGR (human)
  residual activity: 83.8%
PIM3 (human)
  residual activity: 93%
AXL (human)
  residual activity: 98.1%

## O=c1cc(N2CCNCC2)oc2c(-c3ccccc3)cccc12
RPS6KA2 KD1 KD2 (human)
  residual activity: 106%
AURKB (human)
  residual activity: 97.8%
RIPK2 (human)
  residual activity: 82.9%
DDR2 (human)
  residual activity: 95.5%
CSNK1G3 (human)
  residual activity: 102%
GRK5 (human)
  residual activity: 103%
MAP3K3 (human)
  residual activity: 109%
DYRK2 (human)
  residual activity: 96.8%
NEK6 (human)
  residual activity: 105%
PRKD1 (human)
  residual activity: 91.9%
ROCK2 (human)
  residual activity: 87.5%
HIPK4 (human)
  residual activity: 96.9%
BLK (human)
  residual activity: 122%
CSNK2A1 (human)
  residual activity: 89.9%
JAK3 JH1 JH2 (human)
  residual activity: 96.9%
SIK2 (human)
  residual activity: 110%
CDK7 CCNH MNAT1 (human)
  residual activity: 99.3%
TEK (human)
  residual activity: 95%
CSNK1G2 (human)
  residual activity: 101%
ULK2 (human)
  residual activity: 108%
STK16 (human)
  residual activity: 97.4%
[1]
  residual activity: 98.5%
FER (human)
  residual activity: 99.2%
BRSK2 (human)
  residual activity: 103%
PLK3 (human)
  residual activity: 104%
SGK2 (human)
  residual activity: 102%
MAP3K8 (human)
  residual activity: 95.2%
DYRK4 (human)
  residual activity: 94.7%
MAP4K2 (human)
  residual activity: 87.6%
CDK1 CCNA2 (human)
  residual activity: 84.8%
INSR (human)
  residual activity: 101%
SRPK3 (human)
  residual activity: 94.4%
LIMK1 (human)
  residual activity: 108%
MST4 (human)
  residual activity: 96.3%
GRK4 (human)
  residual activity: 106%
MAPK8 (human)
  residual activity: 89.3%
CDK2 CCNE1 (human)
  residual activity: 91.6%
LRRK2 (human)
  residual activity: 101%
NEK4 (human)
  residual activity: 86.4%
FGR (human)
  residual activity: 99.9%
PIM3 (human)
  residual activity: 93.5%
AXL (human)
  residual activity: 117%
